Test results reported in ChEMBL document CHEMBL2434851, “Squaric acid/4-aminoquinoline conjugates: novel potent antiplasmodial agents” (Eur J Med Chem, 2013).

What was measured:
HEK-293T = experiment: Cytotoxicity against HEK293T cells assessed as cell viability after 48 hrs by MTT assay; type: cell-based; settings: Homo sapiens
NIH3T3 = experiment: Cytotoxicity against mouse NIH/3T3 cells assessed as cell viability after 48 hrs by MTT assay; type: cell-based; settings: NIH3T3, 48 h
in vitro = settings: human
Description: Selectivity index, ratio of IC50 for HEK293T cells to IC50 for ring stage of Plasmodium falciparum W2 infected in human RBC

Plasmodium falciparum = experiment: microbe, parasite or virus in culture; settings: W2, 48 h
Description: Antiplasmodial activity against ring stage of chloroquine-resistant Plasmodium falciparum W2 infected in human RBC after 48 hrs by flow cytometric analysis

Papain = target: T1, Papain (Carica papaya, UniProt P00784); experiment: Inhibition of papaya papain using Z-Leu-Leu-Arg-AMC as substrate after 30 mins by fluorescence microplate reader analysis
T1 sequence (P00784 whole entry): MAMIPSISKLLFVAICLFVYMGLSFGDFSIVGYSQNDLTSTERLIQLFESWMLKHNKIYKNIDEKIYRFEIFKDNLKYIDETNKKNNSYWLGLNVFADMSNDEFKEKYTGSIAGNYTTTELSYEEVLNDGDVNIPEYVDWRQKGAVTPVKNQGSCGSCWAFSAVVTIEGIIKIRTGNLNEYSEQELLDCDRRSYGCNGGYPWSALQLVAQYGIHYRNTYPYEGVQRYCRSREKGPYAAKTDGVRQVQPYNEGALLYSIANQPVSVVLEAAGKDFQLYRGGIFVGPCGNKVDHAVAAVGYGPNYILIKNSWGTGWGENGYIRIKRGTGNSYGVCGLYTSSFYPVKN

[1] = Inhibition of Plasmodium falciparum falcipain-2 using Z-Leu-Arg-AMC as substrate preincubated for 10 mins followed by substrate addition by spectrofluorometric analysis

SMILES	IC50 (HEK-293T) [µM]	IC50 (NIH3T3) [µM]	selectivity ratio (in vitro)	IC50 (Plasmodium falciparum) [µM]	IC50 (Papain) [µM]	IC50 [1] [µM]
O=c1c(N2CCC(Nc3ccnc4cc(Cl)ccc34)CC2)c(N2CCC(Nc3ccnc4cc(Cl)ccc34)CC2)c1=O	> 50	> 50	> 476	0.105	–	–
COc1c(NCCCNc2ccnc3cc(Cl)ccc23)c(=O)c1=O	> 50	> 50	> 27	1.84	> 10	–
O=c1c(NCCCCNc2ccnc3cc(Cl)ccc23)c(NCCCCNc2ccnc3cc(Cl)ccc23)c1=O	> 50	> 50	> 526	0.095	> 10	–
COc1c(NCCNc2ccnc3cc(Cl)ccc23)c(=O)c1=O	> 50	> 50	> 32	1.56	> 10	> 10
CCCCOc1c(NCCNc2ccnc3cc(Cl)ccc23)c(=O)c1=O	> 50	> 50	> 24	2.04	> 10	> 10
O=c1c(NCCCNc2ccnc3cc(Cl)ccc23)c(NCCCNc2ccnc3cc(Cl)ccc23)c1=O	> 50	> 50	> 505	0.099	> 10	–
CCCCOc1c(NCCCC(C)Nc2cc(OC)cc3cccnc23)c(=O)c1=O (stereo not drawn)	> 50	> 50	> 2	18.6	> 10	–
COc1cc(NC(C)CCCNc2c(NCCCC(C)Nc3cc(OC)cc4cccnc34)c(=O)c2=O)c2ncccc2c1 (stereo not drawn)	> 50	> 50	> 22	2.21	–	–
CCCCOc1c(N2CCC(Nc3ccnc4cc(Cl)ccc34)CC2)c(=O)c1=O	37.9	45.7	8	4.71	–	–
CCCCOc1c(N2CCN(c3ccnc4cc(Cl)ccc34)CC2)c(=O)c1=O	> 50	> 50	> 6	7.82	> 10	–
CCCCOc1c(OCCCC)c(=O)c1=O [SQUARIC ACID DIBUTYL ESTER]	–	–	–	8.84	–	–
O=c1c(NCCNc2ccnc3cc(Cl)ccc23)c(NCCNc2ccnc3cc(Cl)ccc23)c1=O	5	4.5	25	0.2	> 10	–
CCCCOc1c(NCCCNc2ccnc3cc(Cl)ccc23)c(=O)c1=O	–	–	–	> 10	> 10	> 10
O=C(NCCNc1ccnc2cc(Cl)ccc12)[C@H](Cc1ccccc1)Nc1c(N[C@@H](Cc2ccccc2)C(=O)NCCNc2ccnc3cc(Cl)ccc23)c(=O)c1=O	> 50	> 50	> 70	0.71	> 10	> 50
CCN(CC)CCCC(C)Nc1ccnc2cc(Cl)ccc12 (stereo not drawn) [CHLOROQUINE]	> 50	> 50	–	–	–	–
CC(C)C[C@H](NC(=O)[C@H]1O[C@@H]1C(=O)O)C(=O)NCCCCN=C(N)N [E-64]	–	–	–	–	0.007	0.06
